Measurements as given in US4160839A, “Carbamyltriazole insecticides” (priority 1976, dated 1979).

Assays:
Type in all cases: in vivo
[1] = test system: Mexican bean beetle (MBB) larvae; assay: Spray test, Mexican bean beetle (MBB) larvae on bean leaves; conditions: approx. 48 h after spraying
Description: (§1) Three 5 oz paper cups containing Henderson dwarf lima bean plants and one 5 oz paper cup containing Orange Gem nasturtiums, all growing in vermiculite, are placed on a turntable and sprayed to thorough wetness with 25 ml of a solution of the candidate chemical at the appropriate concentration. Nasturtiums were already infested with 50-100 bean aphids (BA). A bean plant in one paper cup was already infested with 50-100 two-spotted mites (TSM). Leaves from the two remaining bean plants are removed following spraying and placed in disposable petri dishes with 5 southern armyworm (SA) larvae in one petri dish, and 5 Mexican bean beetle (MBB) larvae in the other petri dish. The rating is done approximately 48 hours after spraying as follows:
(§2) So as to obtain more meaningful results, all tests are performed at the same time of day, whenever possible, usually in the forenoon. Temperature,illumination and humidity are the same in all tests. Atmospheric pressure is not controlled.
(§3) Results obtained with the novel insecticides of this invention at various concentrations of active chemical are tabulated below. The ratings given are for averages of three or more replicates. The oral lethal dose for 50 percent kill of laboratory rats is also recorded in the table. In conducting the toxicity tests on rats, 0.01 g of active chemical per ml in corn oil is employed as an additive to the diet of the animals.

[2] = test system: southern armyworm (SA) larvae; assay: Spray test, southern armyworm (SA) larvae on bean leaves; conditions: approx. 48 h after spraying
Description: as §1, §2, §3

bean aphids (BA) = assay: Spray test, bean aphids (BA) on nasturtiums; conditions: approx. 48 h after spraying
Description: as §1, §2, §3

two-spotted mites (TSM) = assay: Spray test, two-spotted mites (TSM) on bean plants; conditions: approx. 48 h after spraying
Description: as §1, §2, §3

[3] = test system: Southern Corn Rootworm (SCR); assay: Southern Corn Rootworm (SCR) soil treatment test, root feeding damage on corn; set-up: scale not given here; conditions: nine days after treatment
Description: Three 5 oz paper cups planted each with one kernel of DeKalb XL-361 corn are treated two days after planting with 10 ml of a 125 ppm solution of the candidate compound. Compounds with high efficacy are treated at lower concentrations. The experiment is a 4×5 factorial in a randomized complete block design with three replications. The tests are evaluated nine days after treatment. The roots are inspected under a dissecting microscope and rated as follows:
as §2, §3

Row | Compound | MBB rating (larvae dead) ([1]; 500 ppm) | SA rating (larvae dead) ([2]; 500 ppm) | BA rating (dead) (bean aphids (BA); 4 ppm) | BA rating (dead) (bean aphids (BA); 8 ppm) | BA rating (dead) (bean aphids (BA); 15 ppm) | BA rating (dead) (bean aphids (BA); 31 ppm) | BA rating (dead) (bean aphids (BA); 62 ppm) | BA rating (dead) (bean aphids (BA); 125 ppm) | BA rating (dead) (bean aphids (BA); 250 ppm) | BA rating (dead) (bean aphids (BA); 500 ppm) | TSM rating (dead adults) (two-spotted mites (TSM); 500 ppm) | SCR Rating (root feeding damage) ([3]; 100 ppm) | BA rating (dead) (bean aphids (BA); 2 ppm) | also measured
1 | C=C(Br)CSc1nc(C2CC2)nn1C(=O)N(C)C | 2 (26-50% larvae dead) | 0 (no larvae dead) | 0 (none dead) | 2 (26-50% dead) | 4 (76-99% dead) | 5 (100% dead) | 5 (100% dead) | 5 (100% dead) | 5 (100% dead) | 5 (100% dead) | 2 (26-50% dead adults) | 4.3 | – | SCR Rating (root feeding damage) ([3]; 50 ppm): 0.3
2 | C=C(Br)CSc1nc(C(C)(C)C)nn1C(=O)N(C)C | 2 (26-50% larvae dead) | 0 (no larvae dead) | 4 (76-99% dead) | 4 (76-99% dead) | 5 (100% dead) | 5 (100% dead) | 5 (100% dead) | 5 (100% dead) | 5 (100% dead) | 5 (100% dead) | 4 (76-99% dead adults) | – | – | TSM rating (dead adults) (two-spotted mites (TSM); 15 ppm): 0 (no dead adults); TSM rating (dead adults) (two-spotted mites (TSM); 31 ppm): 0 (no dead adults); TSM rating (dead adults) (two-spotted mites (TSM); 62 ppm): 0 (no dead adults); TSM rating (dead adults) (two-spotted mites (TSM); 125 ppm): 0 (no dead adults); TSM rating (dead adults) (two-spotted mites (TSM); 250 ppm): 0 (no dead adults)
3 | C=CC(C)Sc1nc(C(C)(C)C)nn1C(=O)N(C)C (centres unmarked) [R=1-methylallyl, R'=tert.butyl] | 5 (100% larvae dead) | 4 (76-99% larvae dead) | – | – | 5 (100% dead) | 5 (100% dead) | 5 (100% dead) | 5 (100% dead) | 5 (100% dead) | 5 (100% dead) | 0 (no dead adults) | – | – | MBB rating (larvae dead) ([1]; 15 ppm): 0 (no larvae dead); MBB rating (larvae dead) ([1]; 31 ppm): 0 (no larvae dead); MBB rating (larvae dead) ([1]; 62 ppm): 0 (no larvae dead); MBB rating (larvae dead) ([1]; 125 ppm): 1 (1 -25% larvae dead); MBB rating (larvae dead) ([1]; 250 ppm): 1 (1 -25% larvae dead); SA rating (larvae dead) ([2]; 15 ppm): 0 (no larvae dead); SA rating (larvae dead) ([2]; 31 ppm): 0 (no larvae dead); SA rating (larvae dead) ([2]; 62 ppm): 0 (no larvae dead); SA rating (larvae dead) ([2]; 125 ppm): 0 (no larvae dead); SA rating (larvae dead) ([2]; 250 ppm): 0 (no larvae dead)
4 | CN(C)C(=O)n1nc(C(C)(C)C)nc1SCC(Cl)=C(Cl)Cl [R=2,3,3-trichloro-allyl, R'=tert.butyl] | 0 (no larvae dead) | 0 (no larvae dead) | 3 (51-75% dead) | 4 (76-99% dead) | 5 (100% dead) | 5 (100% dead) | 5 (100% dead) | 5 (100% dead) | 5 (100% dead) | 4 (76-99% dead) | 0 (no dead adults) | – | 3 (51-75% dead) | –
5 | C=C(Cl)CSc1nc(C(C)(C)C)nn1C(=O)N(C)C [R=2-chloroallyl, R'=tert.butyl] | 2 (26-50% larvae dead) | 0 (no larvae dead) | 4 (76-99% dead) | 4 (76-99% dead) | 5 (100% dead) | 5 (100% dead) | 5 (100% dead) | 5 (100% dead) | 5 (100% dead) | 5 (100% dead) | 0 (no dead adults) | – | 4 (76-99% dead) | –
6 | C=C(C)CSc1nc(C(C)(C)C)nn1C(=O)N(C)C [R=2-methylallyl, R'=tert.butyl] | 2 (26-50% larvae dead) | 0 (no larvae dead) | 4 (76-99% dead) | 4 (76-99% dead) | 5 (100% dead) | 5 (100% dead) | 5 (100% dead) | 5 (100% dead) | 5 (100% dead) | 5 (100% dead) | 0 (no dead adults) | 1.3 | 1 (1-25% dead) | –
7 | C#CCSc1nc(CCC)nn1C(=O)N(C)C [R=2-propynyl, R'=propyl] | 5 (100% larvae dead) | 5 (100% larvae dead) | 0 (none dead) | 1 (1-25% dead) | 5 (100% dead) | 5 (100% dead) | 5 (100% dead) | 5 (100% dead) | 5 (100% dead) | 5 (100% dead) | 0 (no dead adults) | 3.7 | 0 (none dead) | MBB rating (larvae dead) ([1]; 15 ppm): 0 (no larvae dead); MBB rating (larvae dead) ([1]; 31 ppm): 1 (1 -25% larvae dead); MBB rating (larvae dead) ([1]; 62 ppm): 3 (51-75% larvae dead); MBB rating (larvae dead) ([1]; 125 ppm): 5 (100% larvae dead); MBB rating (larvae dead) ([1]; 250 ppm): 5 (100% larvae dead); SA rating (larvae dead) ([2]; 15 ppm): 0 (no larvae dead); SA rating (larvae dead) ([2]; 31 ppm): 0 (no larvae dead); SA rating (larvae dead) ([2]; 62 ppm): 0 (no larvae dead); SA rating (larvae dead) ([2]; 125 ppm): 0 (no larvae dead); SA rating (larvae dead) ([2]; 250 ppm): 0 (no larvae dead); SCR Rating (root feeding damage) ([3]; 25 ppm): 1.3; SCR Rating (root feeding damage) ([3]; 50 ppm): 2.7
